Measurements as given in patent US20080058368A1, “4,5,6,7-Tetrahydro-[1,2]Dithiolo[4,3-C] Pyridine-3-Thione Compounds” (priority 2004, published 2008).

Assays:
[1] = tested on: Glutathione S-transferase A (GSTA); experiment: GSTA expression induced by C/EBPβ activation, immunochemical method; assay type: cell-based; parameters: key: +: similar activation effects to oltipraz; ++: stronger activation effects than oltipraz; conditions: 30 μM, 24 hours, nuclear fractions or lysates, relative to oltipraz
Procedure: (§1) The present experimental example is to confirm C/EBPβ activation by using Compound 1 and Compound 2 which were prepared in the above Examples, and a degree of increase of Glutathione S-transferase A (GSTA), a representative gene which is induced by C/EBPβ activation. […] 0.7 mg/ml of MTT (yellow tetrazolium salt) was added thereto and further cultured for 4 hours. Since MTT is reduced to insoluble formazan crystal in survived cells, the produced crystal was dissolved with DMSO solvent, and the absorbance at 595 nm was measured. The cells were cultured with the newly prepared compounds except for the compounds which kill cells, i.e., Compound 1 and Compound 2 (each 30 μM), for 24 hours, and C/EBPβ activation and GSTA expression in nuclear fractions or lysates obtained from the treated cells were measured by immunochemical method.
When C/EBPβ gene is deleted in animals, regeneration of live tissue is impossible [Greenbaum et al., J Clin Invest. 1998; 102(5):996-1007]. C/EBPβ activation inhibits transforming growth factors (TGF-β) which is a mediating factor of hepatic fibrosis [Kang et al., FASEB J. 2002; 16(14):1988-90]. Therefore, C/EBPβ activation plays an important role in liver tissue regeneration and hepatic fibrosis inhibition. […]

C/EBPβ = C/EBPβ activation (phosphorylation, nuclear translocation) by immunochemical method in treated cells; assay type: cell-based; parameters: key to C/EBPβ activation: O: same enzyme induction as oltipraz; OO: stronger enzyme induction than oltipraz; conditions: for C/EBPβ activation: 30 μM, 24 hours, nuclear fractions or lysates, relative to oltipraz; for phosphorylation of 105Serine residue of C/EBPβ: after 3 hours from the culture; for p-C/EBPβ (105Serine) localisation, cytoplasmic to nuclear fractions: after 6 hours
Procedure: as §1
When C/EBPβ gene is deleted in animals, regeneration of live tissue is impossible [Greenbaum et al., J Clin Invest. 1998; 102(5):996-1007]. C/EBPβ activation inhibits transforming growth factors (TGF-β) which is a mediating factor of hepatic fibrosis [Kang et al., FASEB J. 2002; 16(14):1988-90]. Therefore, C/EBPβ activation plays an important role in liver tissue regeneration and hepatic fibrosis inhibition. C/EBPβ activation process takes place by mediating phosphorylation of specific amino acid residue, i.e., ^105Serine residue of C/EBPβ [Buck et al., Mol. Cell. 1999; 4(6):1087-92]. Under this background art, it was observed whether or not direct increase of RSK1's activity by the compounds of the present invention induces phosphorylation of ^105Serine residue of C/EBPβ. […] In this experimental example, oltipraz was used as comparative example.

Structure (SMILES): S=c1ssc2c1CN(Cc1ccccc1)CC2 [Compound 1, 5-benzyl-4,5,6,7-tetrahydro-1,2-dithiolo[4,3-c]pyridine-3-thion]
- GSTA induction [1]: ++
- degree of phosphorylation of 188Threonine residue of C/EBPβ (C/EBPβ): not changed at all
- C/EBPβ activation (C/EBPβ): O
- phosphorylation of 105Serine residue of C/EBPβ (C/EBPβ): increased
- p-C/EBPβ (105Serine) localisation, cytoplasmic to nuclear fractions (C/EBPβ): moved into the nuclear fractions

Structure (SMILES): CCOC(=O)N1CCc2ssc(=S)c2C1 [Compound 2, 3-thioxo-6,7-dihydro-3H,4H-1,2-dithiolo[4,3-c]pyridine-5-carboxylic acid ethyl ester]
- GSTA induction [1]: ++
- degree of phosphorylation of 188Threonine residue of C/EBPβ (C/EBPβ): not changed at all
- C/EBPβ activation (C/EBPβ): O
- phosphorylation of 105Serine residue of C/EBPβ (C/EBPβ): increased
- p-C/EBPβ (105Serine) localisation, cytoplasmic to nuclear fractions (C/EBPβ): moved into the nuclear fractions
